By IC50 is commonly meant the concentration that inhibits the measured activity by half. The inhibition is the relative decrease from the control value, in per cent.

Assay [1] addresses T1, Amyloid-beta precursor protein (Homo sapiens, UniProt P05067). In words: Inhibition of amyloid beta (unknown origin) aggregation.
Assay [2] addresses T2, Acetylcholinesterase (Homo sapiens, UniProt P22303). Put plainly: Inhibition of AChE (unknown origin).
Assay [3] has as its target T2, Acetylcholinesterase. Put plainly: Inhibition of AChE (unknown origin)-mediated amyloid beta aggregation at 100 uM.
Assay [4] deals with T2, Acetylcholinesterase. Put plainly: Inhibition of AChE (unknown origin) assessed as inhibition of ROS production.
The target of assay [5] is T1, Amyloid-beta precursor protein. Put plainly: Inhibition of amyloid beta (unknown origin) aggregation at 10 uM.
Assay [6] has the same target. In words: Inhibition of amyloid beta (unknown origin) aggregation at 25 uM.

T1 sequence (P05067 whole entry): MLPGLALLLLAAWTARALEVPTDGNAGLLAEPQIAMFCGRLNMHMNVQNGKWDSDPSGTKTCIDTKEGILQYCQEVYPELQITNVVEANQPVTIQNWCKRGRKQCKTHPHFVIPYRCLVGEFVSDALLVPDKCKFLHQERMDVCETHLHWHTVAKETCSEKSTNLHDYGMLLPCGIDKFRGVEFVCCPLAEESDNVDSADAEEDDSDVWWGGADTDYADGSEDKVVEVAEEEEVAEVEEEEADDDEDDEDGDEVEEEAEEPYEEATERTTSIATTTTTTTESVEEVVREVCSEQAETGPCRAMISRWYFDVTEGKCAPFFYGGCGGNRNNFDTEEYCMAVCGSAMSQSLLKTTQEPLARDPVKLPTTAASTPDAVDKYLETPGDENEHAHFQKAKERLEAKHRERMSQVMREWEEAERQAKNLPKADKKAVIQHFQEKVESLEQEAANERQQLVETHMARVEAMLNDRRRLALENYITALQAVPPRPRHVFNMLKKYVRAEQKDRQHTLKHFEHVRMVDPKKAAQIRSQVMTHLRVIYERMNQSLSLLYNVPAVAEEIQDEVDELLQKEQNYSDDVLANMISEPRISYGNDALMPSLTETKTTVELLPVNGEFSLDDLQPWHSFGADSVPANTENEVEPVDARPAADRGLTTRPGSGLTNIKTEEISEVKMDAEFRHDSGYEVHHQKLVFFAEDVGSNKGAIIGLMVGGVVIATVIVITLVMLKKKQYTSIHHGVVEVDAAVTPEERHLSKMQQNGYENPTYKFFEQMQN
T2 sequence (P22303 whole entry): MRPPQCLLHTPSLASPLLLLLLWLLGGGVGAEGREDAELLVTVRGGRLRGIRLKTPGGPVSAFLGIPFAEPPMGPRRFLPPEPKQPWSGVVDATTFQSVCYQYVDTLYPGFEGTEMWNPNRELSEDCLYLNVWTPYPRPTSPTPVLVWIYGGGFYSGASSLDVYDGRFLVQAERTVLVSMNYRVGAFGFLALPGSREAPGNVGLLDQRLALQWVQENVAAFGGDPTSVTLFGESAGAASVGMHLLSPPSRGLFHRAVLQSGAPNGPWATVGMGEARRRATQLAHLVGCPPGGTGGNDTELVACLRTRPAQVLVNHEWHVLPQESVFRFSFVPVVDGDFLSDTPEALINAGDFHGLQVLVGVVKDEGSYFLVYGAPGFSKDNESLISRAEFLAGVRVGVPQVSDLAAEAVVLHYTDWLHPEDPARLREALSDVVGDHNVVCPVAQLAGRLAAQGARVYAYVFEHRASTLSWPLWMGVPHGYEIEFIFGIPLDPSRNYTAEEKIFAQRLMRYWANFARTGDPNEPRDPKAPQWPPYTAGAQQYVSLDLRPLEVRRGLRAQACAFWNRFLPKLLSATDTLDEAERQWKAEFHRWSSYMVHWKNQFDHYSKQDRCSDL

As to `c1ccc2c(NCCSSCCNc3c4c(nc5ccccc35)CCCC4)c3c(nc2c1)CCCC3`, the figures for the IC50 (in assay [1]; at Acetylcholinesterase [2]) were 24.2 µM and 5.04 nM, respectively. Besides, at Acetylcholinesterase [3], the inhibition is 52.6%.
Consider `O=C(CCCOc1cccc2[nH]c3ccccc3c12)NCCCNc1c2c(nc3ccccc13)CCCC2`, for which the results for the IC50 at Acetylcholinesterase [4] and on Acetylcholinesterase [2] were 23 µM and 2.15 nM, respectively. Also, the figures for the inhibition (on Acetylcholinesterase [3]; in assay [5]) were 57.7% and 36%, respectively.
In turn, `COc1cc(/C=C/C(=O)NCCCCCCNc2c3c(nc4ccccc24)CCCC3)ccc1O` displayed an inhibition in assay [6] of 100%. The molecule further returned an IC50 against Acetylcholinesterase [2] of 11.6 nM.

The values are drawn from ChEMBL document CHEMBL3232801, “Oxidative stress in Alzheimer's disease: are we connecting the dots?” (J Med Chem, 2014).
